“Also recorded” adds a separate entry of the source.
What was measured:
CT26 colon carcinomas = experiment: CT26 colon carcinoma model, daily i.p. treatment, tumor volume; type: in vivo, BALB/c mice; conditions: for effect of co-administered antagonist on the inhibition of tumor growth by clonidine / effect of co-administered antagonist on the inhibition of tumor growth by guanabenz: CT26; for effect of co-administered antagonist on the inhibition of tumor growth by clonidine: clonidine 5 mg/kg i.p. plus phentolamine 5 mg/kg, propranolol 5 mg/kg or yohimbine 10 mg/kg i.p. daily; for effect of co-administered antagonist on the inhibition of tumor growth by guanabenz: guanabenz 5 mg/kg i.p. plus phentolamine 5 mg/kg or yohimbine 10 mg/kg i.p. daily
Experimental: Mice received a daily intra-peritoneal injection of guanabenz (5 mg/kg) or vehicle (PBS) from the day of randomization (and the day of ACT when applicable) until the day of sacrifice. For the co-administration of adrenergic receptor agonist and antagonist, BALB/c mice bearing CT26 colon carcinomas received daily injections of vehicle control, guanabenz (5 mg/kg, i.p.), or guanabenz (5 mg/kg, i.p.) plus yohimbine (10 mg/kg, i.p.), when the tumor size was around 50 mm^3, until the day of sacrifice.
[…] mice were injected subcutaneously with 2×10^6 CT26 colon tumor cells at an age of 6 to 8 weeks. […] For evaluation of yohimbine on the effect of clonidine and guanabenz, the mice were randomized into different groups when tumors size arrived around 100 mm^3 and received daily injections of guanabenz (5 mg/kg, i.p.), yohimbine (10 mg/kg), a mix of guanabenz (5 mg/kg, i.p.) and yohimbine (10 mg/kg, i.p.), clonidine (5 mg/kg, i.p.), a mix of clonidine (5 mg/kg, i.p.) and yohimbine (10 mg/kg, i.p.) or vehicle control. Tumor size was measured every 2 days and mice were sacrificed when the tumor in control group reached 1,000 mm^3.

[1] = tested on: immune-resistant autochthonous melanoma tumors (TiRP); experiment: TiRP melanoma with adoptive cell transfer (ACT) of P1A-specific CD8+T cells; type: in vivo, TiRP mice
Source text: TiRP mice have been created by crossing Ink4a/Are^flox/flox mice with mice carrying a transgenic construct controlled by the tyrosinase promoter and driving the expression of H-Ras ^12V and Trapl a which encodes a MAGE-type tumor antigen P1A; the promoter is separated from the coding region by a stop cassette made of a floxed self-deleting CreER (Huijbers et al., 2006, Cancer Res 66, 3278-3286). Those mice were backcrossed to a B10.D2 background and bred to homozygosity. TCRP1A mice heterozygous for the H-2Ld/P1A35-43-specific TCR transgene were kept on the B10.D2;Rag1^−/− background (Shanker et al., 2004, J Immunol 172, 5069-5077). BALB/c mice were used in tumor transplantation experiments. TiRP-derived T429.11 transplanted melanoma model: T429.11 clone was derived from an induced Amela TiRP tumor referred to as T429. It was cloned from the T429 induced melanoma primary tumor line. Two million of T429.11 tumor cells were injected subcutaneously into recipient mice for tumor establishment (Zhu et al., 2017, Nat Commun. 10; 8(1):1404). Adra2a tm1Bkk mice (Strain Name: B6.129-Adra2a tm1Bkk /J, # 004367) were obtained from Jackson Laboratory (Bar Harbor, Me., USA).
(§1) A fresh solution of 40H-Tamoxifen was prepared by dissolving 40H-Tamoxifen (Imaginechem®) in 100% ethanol and mineral oil (ratio 1:9) followed by 30 min sonication, and injected subcutaneously (2 mg/200 uL per mouse) in the neck area of gender-matched 7 weeks old TiRP mice. Tumor appearance was monitored daily and tumors were measured three times/week. Tumor volume (in mm^3) was calculated by the following formula: Volume=width^2×length/2.
For the adoptive cell transfer (ACT), P1A-specific (TCRP1A) CD8+T cells were isolated from spleens and lymph nodes of TCRP1A mice as described hereinabove, and stimulated in vitro by co-culture with irradiated (10,000 rads) L1210.P1A.B7-1 cells (Gajewski et al., 1995, J Immunol 154, 5637-5648) at 1:2 ratio (0.5×10^5 CD8+T cells and 10^5 L1210.P1A.B7-1 cells per well in 48-well plates) in IMDM (GIBCO®) containing 10% fetal bovine serum supplemented with L-arginine (0.55 mM, Merck®), L-asparagine (0.24 mM, Merck®), glutamine (1.5 mM, Merck®), beta-mercaptoethanol (50 μM, Sigma Aldrich®), 50 U mL^−1 penicillin and […] mL^−1 streptomycin (Life Technologies®). Four days later, TCRP1A CD8+T cells were purified on a Lymphoprep gradient (StemCell®) and 10^7 living cells were injected intravenously in 200 μL PBS in TiRP-tumor bearing mice on the day of randomization.
TiRP-tumor bearing mice received adoptive cell transfer (ACT) of 10^7 P1A-specific activated CD8+T cells and daily injections of vehicle control, clonidine (5 mg/kg, i.p.), or clonidine (5 mg/kg, i.p.) combined with phentolamine (5 mg/kg, i.p.), when the tumor size was around 500 mm^3, until the day of sacrifice. Tumor size was monitored every 2 days. Mice were sacrificed when the tumor in control group reached around 2,000 mm^3.
TiRP-tumor bearing mice received adoptive cell transfer (ACT) of 10^7 of P1A-specific activated CD8+T cells. Daily injections of 5 mg/kg i.p. of romifidine or clonidine were thus administered from the day of the ACT, when the tumor size was around 500 mm^3, until the day of sacrifice. As shown on FIGS. 5A-B, following romifidine or clonidine administration, tumor infiltration of CD8+T cells was increased. […]

CT26 colon cancer = CT26 colon cancer tumor growth (FIGS. 15-16); type: in vivo, C57BL/6J mice
Source text: Tumor infiltration of CD8+cells evaluated at the day of sacrifice by FACS (FIG. 15B). Tumor growth of CT26 colon cancer in NSG mice treated with PBS (Control), clonidine, clonidine mixed with yohimbine, or yohimbine alone (FIG. 15C). FIGS. 16A-C is a set of curves and histograms showing the tumor growth of CT26 colon cancer in C57BL/6J mice treated with PBS (Control, circles), guanabenz (diamonds), guanabenz mixed with yohimbine (light grey inverted triangles), or yohimbine alone (dark grey inverted triangles) (FIG. 16A); the tumor infiltration of CD8+ cells evaluated at the day of sacrifice by FACS (FIG. 16B); and the tumor growth of CT26 colon cancer in NSG mice treated with PBS (Control), guanabenz, guanabenz mixed with yohimbine, or yohimbine alone (FIG. 16C). […] For evaluation of yohimbine on the effect of clonidine and guanabenz, the mice were randomized into different groups when tumors size arrived around 100 mm^3 and received daily injections of guanabenz (5 mg/kg, i.p.), yohimbine (10 mg/kg), a mix of guanabenz (5 mg/kg, i.p.) and yohimbine (10 mg/kg, i.p.), clonidine (5 mg/kg, i.p.), a mix of clonidine (5 mg/kg, i.p.) and yohimbine (10 mg/kg, i.p.) or vehicle control.

JAK2V617F allele burden = experiment: Myelofibrosis by JAK2V617F bone marrow transplantation, allele burden; type: in vivo, C57BL/6 mice; conditions: 5 mg/kg i.p. daily; Day 7 versus Day 0
Experimental: Bone marrow from primary CD45.2 JAK2V617F mice was mixed 1:1 with CD45.1 C57BL/6 marrow and transplanted into lethally irradiated CD45.2 C57BL/6 recipients. 1 month after bone marrow transplantation, mice were randomized into three groups and received daily i.p injection of 5 mg/kg of clonidine, guanabenz or PBS. Blood was taken on Day 0 (Just before the treatment) and on Day 7 (7 days after the treatment). The allele burden was assessed as a fraction of CD45.2 cells along total CD45 cells in the blood of mice.
Decreased JAK2V617F allele burden is a golden standard method to evaluate the disease progression of MF.

[2] = tested on: JAK2V617F mutated bone marrow; experiment: Myelofibrosis by JAK2V617F bone marrow transplantation, platelet counts; type: in vivo, mice; conditions: 5 mg/kg daily for three weeks
Experimental: Murine femurs and tibias from JAK2V617F mutant mice were first harvested and cleaned thoroughly. Marrow cells were flushed into PBS with 2% fetal bovine serum using a 25G needle and syringe. Resulting cell suspensions were then filtered through a 40 uM cell strainer. Recipient mice were irradiated with two doses of 500 rad 4 h apart. 1 million of donor cells were injected into wild-type recipients by standard intravenous injection using a 27G insulin syringe. One week after bone marrow transplantation, mice were treated with guanabenz or clonidine at a dose of 5 mg/kg daily for three weeks. After three weeks of treatment, mice were dissected and peripheral blood was drawn by cardiac puncture, the platelet concentration was measured by Cell Counter Analyzer MS9-5V.

[3] = tested on: human LS411N ovarian cancer; experiment: LS411N xenograft with adoptive transfer of allogeneic human PBMC; type: in vivo
Experimental: (§2) Adoptive transfer of human PBMC was performed when tumor size reaches 100 mm^3.

MC38 colon carcinomas [4] = experiment: MC38 colon carcinoma in wildtype mice; type: in vivo, C57BL/6 Wildtype mice; conditions: 5 mg/kg, i.p. daily from tumor size around 50 mm^3
Experimental: (§3) C57BL/6 Wildtype or C57BL/6 Adra2a KO mice bearing MC38 colon carcinomas received daily injections of vehicle control (PBS), clonidine (5 mg/kg, i.p.) or guanabenz (5 mg/kg, i.p.), when the tumor size was around 50 mm^3, until the day of sacrifice.

MC38 colon carcinomas [5] = experiment: MC38 colon carcinoma in Adra2a KO mice; type: in vivo, C57BL/6 Adra2a KO mice; conditions: 5 mg/kg, i.p. daily from tumor size around 50 mm^3
Experimental: as §3

prostate cancer = experiment: Xenograft model of prostate cancer in NSG mice treated with PBMC; type: in vivo
B16F1 melanoma [6] = experiment: B16F1 melanoma in immune competent mice; type: in vivo; conditions: B16F1 in immune competent C57BL/6 mice; 5 mg/kg, i.p.; monotherapy
Experimental: (§4) FIGS. 10A-B is a set of curves showing the tumor growth of B16F1 melanoma in C57BL/6J (FIG. 10A) or immunodeficient NSG mice (FIG. 10B) treated with PBS (Control, curve 1) or clonidine (5 mg/kg, i.p., curve 2).
(§5) FIGS. 11A-B is a set of curves showing the tumor growth of B16F1 melanoma in C57BL/6J (FIG. 11A) or NSG mice (FIG. 11B) treated with PBS (Control, curve 1) or guanfacine (5 mg/kg, i.p., curve 2).

B16F1 melanoma [7] = experiment: B16F1 melanoma in immune deficient mice; type: in vivo; conditions: B16F1 in immune deficient NSG mice; 5 mg/kg, i.p.
Experimental: as §4, §5

TiRP melanoma = TiRP melanoma model, monotherapy; type: in vivo; conditions: TiRP+/+ mice; 5 mg/kg, i.p. daily from tumor size around 250 mm^3
Experimental: FIGS. 14A-B is a set of curves showing the tumor growth (melanoma) in TiRP+/+ mice that have received daily injections of guanfacine (5 mg/kg, i.p. triangles; FIG. 14A), clonidine (5 mg/kg, i.p., circles; FIG. 14B), or control (PBS, i.p., squares), when the tumor size was around 250 mm^3 until sacrifice.
TiRP mice have been created by crossing Ink4a/Are^flox/flox mice with mice carrying a transgenic construct controlled by the tyrosinase promoter and driving the expression of H-Ras ^12V and Trapl a which encodes a MAGE-type tumor antigen P1A; the promoter is separated from the coding region by a stop cassette made of a floxed self-deleting CreER (Huijbers et al., 2006, Cancer Res 66, 3278-3286). Those mice were backcrossed to a B10.D2 background and bred to homozygosity. TCRP1A mice heterozygous for the H-2Ld/P1A35-43-specific TCR transgene were kept on the B10.D2;Rag1^−/− background (Shanker et al., 2004, J Immunol 172, 5069-5077). […]
as §1

human LS411N cancer = experiment: LS411N xenograft with adoptive transfer of allogeneic human PBMC; type: in vivo; conditions: PBMC, clonidine mixed with yohimbine
Experimental: as §2

Cc1ccc(N(CC2=NCCN2)c2cccc(O)c2)cc1 [Phentolamine]
effect of co-administered antagonist on the inhibition of tumor growth by clonidine (CT26 colon carcinomas): attenuated the inhibitory effect
effect of co-administered antagonist on the inhibition of tumor growth by guanabenz (CT26 colon carcinomas): attenuated the inhibitory effect
effect of phentolamine on the inhibition of TiRP tumor growth by clonidine ([1]; ACT, clonidine 5 mg/kg i.p. plus phentolamine 5 mg/kg i.p. daily): attenuated the inhibitory effect of clonidine on TiRP tumor growth

N=C(N)N/N=C/c1c(Cl)cccc1Cl [guanabenz]
tumor growth (tumor volume) (CT26 colon carcinomas; CT26 in BALB/c mice, 5 mg/kg, i.p. daily from tumor size around 50 mm^3 until sacrifice): promotes a decrease of the tumor volume; also recorded: strongly inhibited CT26 tumor growth
tumor growth (CT26 colon cancer; CT26 colon cancer, FIGS. 15A, 16A): inhibited CT26 colon cancer tumor growth
JAK2V617F allele burden (CD45.2 cells among total CD45 cells in blood) (JAK2V617F allele burden): decrease of JAK2V617F allele burden in a number of mice
platelet (PLT) counts [2]: significantly reduces the platelet (PLT) counts; also recorded: significantly reduced the high platelet counts
tumor growth ([3]; human allogenic PBMC transferred at tumor size 100 mm^3): significant tumor inhibition
tumor growth (MC38 colon carcinomas [4]): significant tumor inhibition
tumor inhibition in Adra2a KO mice (MC38 colon carcinomas [5]): almost completely attenuated
tumor growth (prostate cancer): strong tumor inhibition

N=C(N)NC(=O)Cc1c(Cl)cccc1Cl [guanfacine]
tumor growth, combined with ACT ([1]; TiRP mice, ACT of 10^7 P1A-specific CD8+T cells, 5 mg/kg i.p. daily): inhibited the tumor growth
tumor growth (B16F1 melanoma [6]): inhibited tumor growth
tumor growth (B16F1 melanoma [7]): No tumor inhibition was found
tumor volume, monotherapy (TiRP melanoma): efficient in decreasing the tumor volume

Fc1cccc(Br)c1NC1=NCCN1 [romifidine]
tumor infiltration of CD8+T cells (%CD8+T cells among total CD45+T cells) ([1]; TiRP mice with ACT, 5 mg/kg i.p. daily from day of ACT, tumor size around 500 mm^3, 5 mg/kg): increase of tumor infiltration of CD8+T cells; also recorded: increased

COC(=O)[C@@H]1[C@H]2C[C@H]3c4[nH]c5ccccc5c4CCN3C[C@@H]2CC[C@@H]1O [yohimbine]
effect of co-administered antagonist on the inhibition of tumor growth by clonidine (CT26 colon carcinomas): strongly attenuated; also recorded: reduced the inhibition of tumor growth
effect of co-administered antagonist on the inhibition of tumor growth by guanabenz (CT26 colon carcinomas): strongly attenuated; also recorded: reduced the inhibition of tumor growth
effect of yohimbine on the inhibition of tumor growth by clonidine (CT26 colon cancer; CT26, clonidine mixed with yohimbine): strongly attenuated
effect of yohimbine on the inhibition of tumor growth by guanabenz (CT26 colon cancer; CT26, guanabenz mixed with yohimbine): strongly attenuated
effect of yohimbine on the tumor inhibition by clonidine (human LS411N cancer): strongly attenuated
effect of yohimbine on the tumor inhibition by guanabenz ([3]; PBMC, guanabenz mixed with yohimbine): strongly attenuated

Source: patent US20230165836A1, “ALPHA-2 ADRENERGIC RECEPTOR AGONISTS FOR THE TREATMENT OF CANCER” (UNIVERSITÉ CATHOLIQUE DE LOUVAIN, priority 2020, published 2023)
